From ChEMBL document CHEMBL3271998, “Quantitative structure-activity relationships among steroids. Investigations of the use of steric parameters” (1976)

System: Oryctolagus cuniculus
Assay: Progestational activity in immature rabbit assessed as proliferation of uterus administered intramuscularly by haematoxylin and eosin staining-based assay
Type: functional

Compared with C=C1C[C@H]2[C@@H]3C=C(OC(C)=O)C4=CC(=O)CC[C@]4(C)[C@H]3CC[C@]2(C)[C@@]1(OC(C)=O)C(C)=O, C=C1C[C@H]2[C@@H]3C=C(OC)C4=CC(=O)CC[C@]4(C)[C@H]3CC[C@]2(C)[C@@]1(OC(C)=O)C(C)=O is higher in “log(activity)” value: -0.7 for the first, 1.15 for the second.

C=C1C[C@H]2[C@@H]3C=C(Cl)C4=CC(=O)CC[C@]4(C)[C@H]3CC[C@]2(C)[C@@]1(OC(C)=O)C(C)=O and C=C1C[C@H]2[C@@H]3C=C(F)C4=CC(=O)CC[C@]4(C)[C@H]3CC[C@]2(C)[C@@]1(OC(C)=O)C(C)=O are within 0.2 log units of each other in “log(activity)” value: 1.89 for the first, 1.74 for the second.

Going from C=C1C[C@H]2[C@@H]3C=C(Br)C4=CC(=O)CC[C@]4(C)[C@H]3CC[C@]2(C)[C@@]1(OC(C)=O)C(C)=O to C=C1C[C@H]2[C@@H]3C=C(C)C4=CC(=O)CC[C@]4(C)[C@H]3CC[C@]2(C)[C@@]1(OC(C)=O)C(C)=O [MELENGESTROL ACETATE], the “log(activity)” value rises from 1.62 to 1.96.

First: C=C1C[C@H]2[C@@H]3C=C(N=[N+]=[N-])C4=CC(=O)CC[C@]4(C)[C@H]3CC[C@]2(C)[C@@]1(OC(C)=O)C(C)=O
Second: C=C1C[C@H]2[C@@H]3C=C(C#N)C4=CC(=O)CC[C@]4(C)[C@H]3CC[C@]2(C)[C@@]1(OC(C)=O)C(C)=O
The “log(activity)” value of the first is higher: 1.3 for the first, 0.78 for the second.

First: C=C1C[C@H]2[C@@H]3C=C(SC#N)C4=CC(=O)CC[C@]4(C)[C@H]3CC[C@]2(C)[C@@]1(OC(C)=O)C(C)=O
Second: C=C1C[C@H]2[C@@H]3C=C(C=O)C4=CC(=O)CC[C@]4(C)[C@H]3CC[C@]2(C)[C@@]1(OC(C)=O)C(C)=O
The “log(activity)” value of the first is higher: 1.08 for the first, 0 for the second.

Going from C=C1C[C@H]2[C@@H]3C=C(C(F)(F)F)C4=CC(=O)CC[C@]4(C)[C@H]3CC[C@]2(C)[C@@]1(OC(C)=O)C(C)=O to C=C1C[C@H]2[C@@H]3C=C(OCC)C4=CC(=O)CC[C@]4(C)[C@H]3CC[C@]2(C)[C@@]1(OC(C)=O)C(C)=O, the “log(activity)” value falls from 1.04 to 0.

Going from C=C1C[C@H]2[C@@H]3C=CC4=CC(=O)CC[C@]4(C)[C@H]3CC[C@]2(C)[C@@]1(OC(C)=O)C(C)=O to C=C1C[C@H]2[C@@H]3C=C(NC(C)=O)C4=CC(=O)CC[C@]4(C)[C@H]3CC[C@]2(C)[C@@]1(OC(C)=O)C(C)=O, the “log(activity)” value falls from 0 to -1.
